# Tests used:
# Assay in all cases: Preventative herbicide activity by sprinkling of the soil
# Assay type in all cases: in vivo
# Parameters in all cases: key to Plants sprouted despite the preventative treatment: yes: the areas where the plants have sprouted despite the preventative treatment; no: the areas where the preventative treatment made it possible to prevent the sprouting of the identified plants
# Details in all cases: for Plants sprouted despite the preventative treatment: soil sprinkling
# Bindweed = tested on: Bindweed
# Experimental: (§1) Areas identified as each year showing the presence of couch grass, grass, bindweeds and thistles were treated preventatively. […] The results are reported in Table 6 below, in which the note “yes” indicates the areas where the plants have sprouted despite the preventative treatment, and the note “no” indicates the areas where the preventative treatment made it possible to prevent the sprouting of the identified plants.
# Couch grass = tested on: Couch grass
# Experimental: as §1
# Grass = tested on: Grass
# Experimental: as §1
# Thistle = tested on: Thistle
# Experimental: as §1
smiles,measurement,setting,value
OCc1ccccc1 [benzyl alcohol],Quantity of benzyl alcohol (sprinkling) that prevents sprouting,Bindweed; preventative soil sprinkling,110 L/Ha
same,Plants sprouted despite the preventative treatment,Bindweed; 50 L/ha pure benzyl alcohol,yes
same,Plants sprouted despite the preventative treatment,Bindweed; 70 L/Ha pure benzyl alcohol,yes
same,Plants sprouted despite the preventative treatment,Bindweed; 110 L/Ha pure benzyl alcohol,no
same,Plants sprouted despite the preventative treatment,Bindweed; 120 L/Ha pure benzyl alcohol,no
same,Plants sprouted despite the preventative treatment,Bindweed; 130 L/Ha pure benzyl alcohol,no
same,Plants sprouted despite the preventative treatment,Bindweed; 150 L/Ha pure benzyl alcohol,no
same,Quantity of benzyl alcohol (sprinkling) that prevents sprouting,Couch grass; preventative soil sprinkling,130 L/Ha
same,Plants sprouted despite the preventative treatment,Couch grass; 50 L/ha pure benzyl alcohol,yes
same,Plants sprouted despite the preventative treatment,Couch grass; 70 L/Ha pure benzyl alcohol,yes
same,Plants sprouted despite the preventative treatment,Couch grass; 110 L/Ha pure benzyl alcohol,yes
same,Plants sprouted despite the preventative treatment,Couch grass; 120 L/Ha pure benzyl alcohol,yes
same,Plants sprouted despite the preventative treatment,Couch grass; 130 L/Ha pure benzyl alcohol,no
same,Plants sprouted despite the preventative treatment,Couch grass; 150 L/Ha pure benzyl alcohol,no
same,Quantity of benzyl alcohol (sprinkling) that prevents sprouting,Grass; preventative soil sprinkling,120 L/Ha
same,Plants sprouted despite the preventative treatment,Grass; 50 L/ha pure benzyl alcohol,yes
same,Plants sprouted despite the preventative treatment,Grass; 70 L/Ha pure benzyl alcohol,yes
same,Plants sprouted despite the preventative treatment,Grass; 110 L/Ha pure benzyl alcohol,yes
same,Plants sprouted despite the preventative treatment,Grass; 120 L/Ha pure benzyl alcohol,no
same,Plants sprouted despite the preventative treatment,Grass; 130 L/Ha pure benzyl alcohol,no
same,Plants sprouted despite the preventative treatment,Grass; 150 L/Ha pure benzyl alcohol,no
same,Quantity of benzyl alcohol (sprinkling) that prevents sprouting,Thistle; preventative soil sprinkling,110 L/Ha
same,Plants sprouted despite the preventative treatment,Thistle; 50 L/ha pure benzyl alcohol,yes
same,Plants sprouted despite the preventative treatment,Thistle; 70 L/Ha pure benzyl alcohol,yes
same,Plants sprouted despite the preventative treatment,Thistle; 110 L/Ha pure benzyl alcohol,no
same,Plants sprouted despite the preventative treatment,Thistle; 120 L/Ha pure benzyl alcohol,no
same,Plants sprouted despite the preventative treatment,Thistle; 130 L/Ha pure benzyl alcohol,no
same,Plants sprouted despite the preventative treatment,Thistle; 150 L/Ha pure benzyl alcohol,no
